# From patent US20220273702A1, “HYDROGEN SULFIDE AND NITRIC OXIDE THERAPY FOR COVID-19 INFECTION” (Board of Supervisors of Louisiana State University and …, priority 2021, published 2022)
# How the values were obtained:
# CSE = assay type: cell-based
# p-eNOS = assay type: cell-based
# sulfide = experiment: Single COVID-19 case study: plasma sulfide (monobromobimane method); assay type: in vivo, human; details: single COVID-19 subject, 14 days post-treatment
# C-reactive protein (CRP) = experiment: Single COVID-19 case study: CRP levels; details: single COVID-19 subject, following remdesivir for 5 days; 1.35 and 1.77 mg/dL during infection; normal range 0.3-1.0 mg/dL
# Total NO = experiment: Single COVID-19 case study: plasma total NO (ozone-based chemiluminescence); details: single COVID-19 subject, 280 nM during infection, 400 nM baseline
Compound,restoration of CSE protein expression (CSE),restoration of p-eNOS protein expression (p-eNOS),sulfide level (sulfide),CRP level (C-reactive protein (CRP)),Total NO level (Total NO; 5 days post-treatment),Total NO level (Total NO; 14 days post-treatment)
"C=CCSSSCC=C [DATS, diallyl trisulfide]",two-fold,two-fold,,,,
CCC(CC)COC(=O)[C@H](C)N[P@](=O)(OC[C@H]1O[C@@](C#N)(c2ccc3c(N)ncnn23)[C@H](O)[C@@H]1O)Oc1ccccc1 [remdesivir],,,1.447 µM,0.78 mg/dL,200 nM,280 nM
